We go through 18 compounds from PubChem BioAssay (NCI).

Common to all, as to experiment: growth of human tumour cells (NCI), 48 h
Assay [1] deals with NCI-H23 lung.
Assay [2] deals with OVCAR-3 ovarian.
The subject of assay [3] is RXF 393 renal.
Assay [4] deals with SK-MEL-5 melanoma.
Assay [5] concerns IGROV1 ovarian.
Assay [6] deals with HCT-116 colon.
The subject of assay [7] is UACC-257 melanoma.

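1) Cells in 96-well plates. 2) Compound, 48 h, 5 concentrations. 3) Linear interpolation between surrounding doses. 4) Unreached endpoint = highest concentration. The concentration for 50% growth inhibition is given as GI50. TGI is the concentration that stops growth completely.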

`O=c1cccccc1[O-].O=c1cccccc1[O-].O=c1cccccc1[O-].[La+3]`: the TGI in assay [1] is over 100 µM; in assay [2] it was 55.8 µM; in assay [3], 31.9 µM; in assay [4] it was 22.4 µM; in assay [5], 75.8 µM; in assay [6] it was 31.2 µM. For the same compound, the TGI in assay [7] is 47.9 µM.

As for `N#Cc1cccc(/C=N/N=C(\N)NO)c1`, the TGI in assay [1], in assay [2], in assay [3], in assay [5], in assay [6] and in assay [7] was over 100 µM throughout.

Take `CN1C(=O)C2C(C1=O)C1(O)c3ccccc3C2(N)c2ccccc21` (centres undefined): the TGI in assay [1], in assay [2], in assay [3], in assay [4], in assay [5] and in assay [6] was over 100 µM throughout. This compound gave a TGI in assay [7] of over 100 µM.

For the compound `CN(C)c1ccc(/C=c2\sc3nc4ccccc4n3c2=O)cc1`, the TGI in assay [1], in assay [2], in assay [3], in assay [4], in assay [5] and in assay [6] was over 100 µM each time. The compound also gave a TGI in assay [7] of over 100 µM.

Regarding `COc1ccc(C2ON(c3cccc(C)n3)CC=C2C)cc1` (centres undefined), the TGI in assay [1] is over 100 µM; in assay [2] it was over 100 µM; in assay [3], 96.5 µM; in assay [4], 33.3 µM; in assay [5], over 100 µM; in assay [7], over 100 µM.

For the compound `NC(N)=NS(=O)(=O)c1ccc(NCCc2c3ccccc3nc3ccccc23)cc1`, the TGI in assay [2], in assay [3], in assay [5], in assay [6] and in assay [7] was over 100 µM in each case.

With `CCN(CC)c1ccc(N=Nc2ccc(-c3nc4ccc[n+](C)c4o3)cc2)cc1`, the TGI in assay [1] was determined as 28.6 µM; in assay [2], 21.8 µM; in assay [3], 22.6 µM; in assay [4] it was 11 µM; in assay [5] it was 30.8 µM; in assay [6] it was 16.3 µM. The TGI in assay [7] was 20.2 µM.

Consider `NC(N)=NS(=O)(=O)c1ccc(Nc2c3ccccc3nc3c(C(=O)Nc4ccc(S(N)(=O)=O)cc4)cccc23)cc1`, for which the TGI in assay [1], in assay [2], in assay [3], in assay [4], in assay [5] and in assay [6] was over 100 µM in each case. For the same compound, in assay [7], the TGI was over 100 µM.

For `COC(=O)Nc1nc2ccc(Br)cc2[nH]1`, the TGI was 80.7 µM in assay [1]; 82.5 µM in assay [2]; 67.2 µM in assay [3]; over 100 µM in assay [4]; over 100 µM in assay [5]; over 100 µM in assay [6]. Also, the TGI in assay [7] was over 100 µM.

Take `COc1ccc(OCC(=O)O)c(C(=O)CCC(=O)O)c1`: the TGI in assay [1] was over 100 µM; in assay [2], over 10 µM; in assay [3] it was over 100 µM; in assay [4], over 100 µM; in assay [5], over 100 µM; in assay [6], over 100 µM. The TGI in assay [7] is over 100 µM.

`Clc1ccc(C(n2cc(Br)cn2)n2cc(Br)cn2)cc1`: the TGI in assay [1] is 42.6 µM; in assay [2], 28 µM; in assay [3], 32.5 µM; in assay [4], 27.2 µM; in assay [5] it was 41.3 µM; in assay [7] it was 29.3 µM.

As for `Cc1cc2c(C)nn(Cc3ccc(Cl)cc3)c2c(C#N)c1C`, the TGI in assay [1], in assay [2], in assay [3], in assay [5], in assay [6] and in assay [7] was over 100 µM throughout.

`CC1OC(n2cc(F)c(=O)[nH]c2=O)C=CC1=O` (centres undefined): the TGI is over 100 µM in assay [1]; 29.6 µM in assay [2]; 30.4 µM in assay [3]; 31.4 µM in assay [4]; over 100 µM in assay [5]; 29.8 µM in assay [6]. This compound also returned a TGI in assay [7] of 32.2 µM.

Take `COc1cccc(NC(=O)/C(Cc2nc3ccccc3nc2C)=N/NC(=O)C[n+]2ccccc2)c1`: the TGI in assay [1], in assay [2], in assay [4], in assay [5], in assay [6] and in assay [7] was over 100 µM throughout.

As for `N#CC1CC2(CCN1C(=O)c1ccccc1)OCCO2` (centres undefined), the TGI in assay [1], in assay [2], in assay [3], in assay [4], in assay [5] and in assay [6] was over 100 µM in each case. The same compound showed a TGI in assay [7] of over 100 µM.

As for `O=Cc1c(O)c(C(=O)Nc2ccc3[nH]c(=O)[nH]c3c2)cc2ccccc12`, the TGI in assay [1], in assay [2], in assay [3], in assay [4], in assay [5] and in assay [6] was over 100 µM throughout. Moreover, in assay [7], the TGI was over 100 µM.

In the case of `CCOC(=O)c1[nH]c(COC(C)=O)c2c1CCCCCCCCCC2`, the TGI in assay [1], in assay [2], in assay [3], in assay [4], in assay [5] and in assay [6] was over 100 µM throughout. For the same compound, the TGI in assay [7] is over 100 µM.

For the compound `COC(C)(C)C/C=C/C(C)=C/C=C/C(C)=C\C=C\C(C)=C\C=C\C=C(C)\C=C\C=C(C)\C=C\C=C(C)\C=C\CC(C)(C)OC`, the GI50 in assay [1], in assay [3], in assay [4], in assay [5], in assay [6] and in assay [7] was over 150 µg/mL in each case. Moreover, the TGI in assay [1], in assay [3], in assay [4], in assay [5], in assay [6] and in assay [7] was over 150 µg/mL in each case.
